Results reported in patent publication US8399466B2, “Composition for regenerative treatment of cartilage disease” (Mitsubishi Tanabe Pharma Corporation, priority 2001, dated 2013).

Columns and labels:
[1] = tested on: cAMP hydrolytic PDE expressed in human articular cartilage (fraction Nos. 28-30); test: Inhibition of cAMP hydrolyzing activity of fraction Nos. 28-30 of human articular cartilage extract; format: biochemical
Protocol: From the human knee articular cartilage was isolated on surgery of osteoarthrosis patients. Cartilage portion was scrapped with a surgery knife, washed with ice-cold phosphate buffer and stored at −80° C. The cartilage tissues were milled at −80° C. and then, scattered into pieces with homogenizer (Kinematica A.G., Polytron) in ice-cold homogenization buffer (20 mM Tris-HCl, pH 8.0, 1 mM ethylene glycol bis(β-aminoethylether)-N,N,N′,N′-tetraacetic acid, 1 mM dithiothreitol, 10 μg/ml leupeptin, 5 mM benzamidine, 0.2 mM phenylmethylsulfonyl fluoride, 1 mM sodium azide and 5 mM mercaptoethanol). The resultant homogenate was centrifuged (100,000×g; 30 minutes) to separate supernatant.
The above supernatant was loaded on a Mono Q Sepharose High Performance column (Amersham Pharmacia Biotech) equilibrated with elution buffer (20 mM Tris-HCl, pH 8.0, 1 mM ethylene glycol bis(β-aminoethylether)-N,N,N′,N′-tetraacetic acid, 1 mM dithiothreitol, 2 μg/ml leupeptin, 5 mM benzamidine). After washing the column with 20 ml of elution buffer, proteins were eluted into 1 ml fractions by aqueous sodium chloride solution (concentration gradient: 0 to 1000 mM, 70 ml) under ice-cooling. Each fraction was subjected to the determination of hydrolytic activity (PDE activity) toward cAMP and cGMP as a substrate.
The determination of PDE activity was performed by a radio-labeled nucleic acid assay. That is, the reaction was initiated by adding from 10 to 50 μl of elution fraction to 500 μl of assay buffer (50 mM Tris-HCl, pH 8.0, 5 mM magnesium chloride, 4 mM 2-mercaptoethanol) containing 1 μM of unlabeled cAMP and 22 nM of [^3H]-cAMP (Amersham Pharmacia Biotech).
After incubation at 37° C. for 30 minutes, the reaction was quenched by boiling for 1.5 minutes. Then, 100 μl of 1 mg/ml Crtalus atrox snake venom was added and incubated at 37° C. for 30 minutes. After addition of 500 μl of methanol, the reaction solution was subjected to Dowex column (1×8-400). To each eluate was added a liquid scintillation cocktail and the radio activity was measured.
The inhibitory activity of PDE4 inhibitor on fraction Nos. 28-30 containing potent cAMP hydrolyzing activity was measured according to the above-mentioned radio-labeled nucleic acid assay. The test compounds are Compound (1), Compound (2), Compound (11), Compound (44) and Compound (27).

articular chondrocytes = test: Increase of matrix production of articular chondrocytes (Alcian blue staining of proteoglycan); format: cell-based, rabbit; conditions: for Proteoglycan Production (%): cultivation until day 5, vehicle = 100; for matrix production promoting activity: summary of Table 1
Protocol: Four NZW line rabbits (Kitayama Labes., Co Ltd.; male; 4-week-old) were sacrificed with bleeding under ether anesthesia and femur knee joints were collected aseptically. The collected knee joints were stored in phosphate buffer (pH 7.2) containing 0.2% glucose and only the cortical layer of knee joint was scrapped with a surgical knife into a 50 ml tube containing phosphate buffer (pH 7.2) containing 0.2% glucose. The collected knee joint cortical layer was cut into as small sections as possible on a dish with a razor and shaken at 37° C. for 15 minutes in phosphate buffer containing 0.2% glucose, supplied with 10× trypsin-ethylenediamine tetraacetic acid (EDTA)·4 Na salt (GIBCO; Cat. No. 15400-054) (50 ml, with 100 mg of trypsin and 40 mg of EDTA·4Na; pH 7.2). After shaking, the sample was centrifuged (1,400 rpm) to collect precipitates, and the precipitates were washed twice with 40 ml of phosphate buffer containing 0.2% glucose. The washed precipitates were combined with 40 ml of serum-free α-minimum essential medium (MEM: GIBCO; Cat: No. 12571-063) containing 60 mg of collagenase for cell diffusion (Wako Pure Chemical Industries, Ltd., 034-10533) and transferred to a 100 ml beaker containing a sterilized stirrer bar. Under stirring with the stirrer bar, the collagenase digestion was carried on for about 1 hour in a CO2 incubator at 37° C. Cartilage fragments were removed from the collagenase-treated cells using a […] Cell Strainer ([FALCON; Cat. No. 2340]). To the residual treated cells was added 10 ml of α-MEM medium containing 10% fetal calf serum (FCS), and centrifuged (1,400 rpm). The precipitates were washed with 10% FCS-αMEM medium twice, suspended in appropriate volume of the same medium and the resultant suspension was seeded into collagen type II (Wako Pure Chemical Industries, Ltd., 033-13901)-coated plates (48 well) at 20,000 cells/well. On the next day, the medium was replaced with 10% FCS-αMEM medium.
When cells reached to confluent after the medium exchange procedure above, the medium for test group was replaced with test compound-containing medium (including 0.1% dimethylsulfoxide as a vehicle). As a medium to which a test compound is added, 10% FCS-αMEM medium containing 0.2 mM ascorbic acid was used. The day on which test compound-containing medium was added for the first time was defined as “day 1”. The medium exchange with the same medium was again conducted at day 3 and the cultivation continued until day 5. As to the control group, the medium was exchanged at the same time using the same medium as the test group except that it is free of test compound (containing vehicle only), and the cultivation was carried out in the same manner. After completion of cultivation, the supernatant was removed from the culture medium. Cells were fixed by addition of 0.25 ml of neutral buffer containing 4% paraformaldehyde and incubation for 2 hours. Cells were washed three times with 1 ml of phosphate buffer (pH 7.2) and then stained for 4 hours with 0.1% Alcian blue 8GX (Sigma; A3157) dissolved in 0.1 M hydrochloric acid, which Alcian blue selectively stains cartilage matrix proteoglycan. After staining, the cells were washed 3 times with 1 ml of phosphate buffer (pH 7.2). Alcian blue which had stained cartilage matrix was dissolved with 0.25 ml of aqueous 6 M guanidine hydrochloride solution and a portion of the solution was used to determine the absorbance at 620 nm. The amounts of Alcian blue used for staining was calculated from the absorbance, which in turn was used for the estimation of the amount of matrix (proteoglycan).

Structure (SMILES)	inhibition of the hydrolytic activity of the fraction ([1]; fraction Nos. 28-30, FIG. 4)	IC50 for fraction(s) ([1]; method of Journal of Medicinal Chemistry, vol. 42, 1088-1099 (1999), values only in FIG. 4)	Proteoglycan Production (%) (articular chondrocytes; 1 × 10^−5 M)	Proteoglycan Production (%) (articular chondrocytes; 1 × 10^−6 M)	matrix production promoting activity (articular chondrocytes)
CCOc1cc2cc(CO)c(CO)c(-c3ccnc(-n4nc(-c5cccnc5)c5ccccc5c4=O)c3)c2cc1OCC [Compound (2)]	inhibits the hydrolytic activity of the fraction strongly	consistent with the IC50 of PDE4 inhibition activity described in the same literature	128%	125%	exert matrix production promoting activity
COc1ccc(C(=O)Nc2c(Cl)cncc2Cl)cc1OC1CCCC1 [Compound (11)]				112%	exert matrix production promoting activity
